# Results published in patent US5977133A, “Pyridone antibiotic with improved safety profile” (priority 1998, dated 1999).
# Counter-ions that a name gives are not always drawn.
# Tests used:
# B. fragilis = assay: In vitro MIC, agar dilution; type: cell-based; conditions: Bacteroides fragilis
# Enterococcus spp. (VanR) = assay: In vitro MIC, agar dilution; type: cell-based
# [1] = mouse, in vivo, ip, 100 mg/kg
# Escherichia coli JUHL = assay: In vivo efficacy, mouse infection (ED50); conditions: Escherichia coli, in Mus musculus, 168 h
# in vivo = conditions: mouse, ip
# E. faecium (CiproS) = assay: In vitro MIC, agar dilution; type: cell-based; conditions: Enterococcus faecium
# E. faecalis (VanS) = assay: In vitro MIC, agar dilution; type: cell-based; conditions: Enterococcus faecalis
# P. aeruginosa (CiproR) = assay: In vitro MIC, agar dilution; type: cell-based; conditions: Pseudomonas aeruginosa, P. aeruginosa (CiproR), 20 isolates
# S. aureus (CiproS) = assay: In vitro MIC, agar dilution; type: cell-based; conditions: Staphylococcus aureus
# [2] = test system: staphylococcus aureus NTCC 10649; assay: In vivo efficacy, mouse infection (ED50); conditions: Staphylococcus aureus, NTCC10649, in Mus musculus, 168 h
# S. aureus (CiproR) = assay: In vitro MIC, agar dilution; type: cell-based; conditions: Staphylococcus aureus
# S. pneumoniae (PenR) = assay: In vitro MIC, agar dilution; type: cell-based; conditions: Streptococcus pneumoniae
# E. coli = assay: In vitro MIC, agar dilution; type: cell-based; conditions: Escherichia coli, 25 isolates
# Method: Each plate was inoculated with 1:100 (or 1:10 for slow-growing strains, primarily Micrococcus and Streptococcus) dilutions of up to 32 different microorganisms, using a Steers replicator block calibrated to deliver approximately 10^4 colony forming units (CFU's). The inoculated plates were incubated at from about 35° C. to about 37 ° C. for approximately 20-24 hours. In addition, a control plate using BHI agar containing no test compound was prepared and incubated at the beginning and at the end of each test. The quinolone antibacterial ciprofloxacin was used as a control ("Cntl").
# The numbers below the microorganism species indicate the nunbers of isolates tested. […] The MIC is defined as the lowest concentration of test compound yielding no growth (a slight haze or sparsely isolated colonies at the inoculum spot) as compared to the growth control containing no test compound.
# P. aeruginosa (CiproS) = assay: In vitro MIC, agar dilution; type: cell-based; conditions: Pseudomonas aeruginosa
# [3] = test system: Streptococcus pneumoniae 6303; assay: In vivo efficacy, mouse infection (ED50); conditions: Streptococcus pneumoniae, 6303, in Mus musculus, 168 h
# E. faecium (CiproR) = assay: In vitro MIC, agar dilution; type: cell-based; conditions: Enterococcus faecium, read-out: MIC Range
# S. pneumoniae (PenS) = assay: In vitro MIC, agar dilution; type: cell-based; conditions: Streptococcus pneumoniae
smiles,measurement,setting,value
"Cc1c(N2CC[C@H](N)C2)c(F)cn2c(=O)c(C(=O)O)cc(C3CC3)c12 [Example 2, 1-cyclopropyl-8-(3(S)-3-amino-1-pyrrolidinyl)-7-fluoro-9-methvl-4-oxo-4H-quinolizine-3-carboxylic acid hydrochloride]",MIC90,B. fragilis,0.5 µg/mL
same,MIC,B. fragilis; read-out: MIC Range,0.06 to 0.5 µg/mL
same,MIC50,"B. fragilis; B. fragilis, 18 isolates, read-out: MIC50",0.12 µg/mL
same,MIC90,Enterococcus spp. (VanR); Enterococcus,0.25 µg/mL
same,MIC50,"Enterococcus spp. (VanR); Enterococcus spp. (VanR), 21 isolates, read-out: MIC50",0.25 µg/mL
same,MIC,"Enterococcus spp. (VanR); Enterococcus spp. (VanR), 21 isolates, read-out: MIC Range",0.12 to 2 µg/mL
same,body weight loss,[1],38%
same,ED50,Escherichia coli JUHL; po,0.6 mg/kg
same,ED50,Escherichia coli JUHL; sc,0.1 mg/kg
same,LD50 at 504 h,in vivo,38.8 mg/kg
same,MIC90,E. faecium (CiproS),0.25 µg/mL
same,MIC,E. faecium (CiproS); read-out: MIC Range,0.25 to 0.5 µg/mL
same,MIC50,"E. faecium (CiproS); E. faecium (CiproS), 16 isolates, read-out: MIC50",0.25 µg/mL
same,MIC90,E. faecalis (VanS),0.12 µg/mL
same,MIC50,"E. faecalis (VanS); E. faecalis (VanS), 17 isolates, read-out: MIC50",0.06 µg/mL
same,MIC,"E. faecalis (VanS); E. faecalis (VanS), 17 isolates, read-out: MIC Range",0.03 to 0.12 µg/mL
same,MIC50,P. aeruginosa (CiproR); read-out: MIC50,2 µg/mL
same,MIC90,P. aeruginosa (CiproR); read-out: MIC90,2 µg/mL
same,MIC,P. aeruginosa (CiproR); read-out: MIC Range,1 to 4 µg/mL
same,MIC90,S. aureus (CiproS),0.015 µg/mL
same,MIC50,"S. aureus (CiproS); S. aureus (CiproS), 21 isolates, read-out: MIC50",0.008 µg/mL
same,MIC,"S. aureus (CiproS); S. aureus (CiproS), 21 isolates, read-out: MIC Range",0.008 to 0.015 µg/mL
same,ED50,[2]; po,3.4 mg/kg
same,ED50,[2]; sc,0.6 mg/kg
same,MIC90,S. aureus (CiproR),0.25 µg/mL
same,MIC50,"S. aureus (CiproR); S. aureus (CiproR), 25 isolates, read-out: MIC50",0.25 µg/mL
same,MIC,"S. aureus (CiproR); S. aureus (CiproR), 25 isolates, read-out: MIC Range",0.03 to 1 µg/mL
same,MIC50,S. pneumoniae (PenR),0.03 µg/mL
same,MIC90,S. pneumoniae (PenR),0.03 µg/mL
same,MIC,"S. pneumoniae (PenR); S. pneumoniae (PenR), 25 isolates, read-out: MIC Range",0.03 µg/mL
same,MIC,E. coli,0.004 to 0.015 µg/mL
same,MIC50,E. coli; read-out: MIC50,0.004 µg/mL
same,MIC90,E. coli; read-out: MIC90,0.008 µg/mL
same,MIC90,P. aeruginosa (CiproS),0.25 µg/mL
same,MIC50,"P. aeruginosa (CiproS); P. aeruginosa (CiproS), 24 isolates, read-out: MIC50",0.06 µg/mL
same,MIC,"P. aeruginosa (CiproS); P. aeruginosa (CiproS), 24 isolates, read-out: MIC Range",0.015 to 0.5 µg/mL
same,ED50,[3]; po,5.3 mg/kg
same,ED50,[3]; sc,1.6 mg/kg
same,MIC,E. faecium (CiproR),0.5 to 2 µg/mL
same,MIC50,S. pneumoniae (PenS),0.03 µg/mL
same,MIC90,S. pneumoniae (PenS),0.03 µg/mL
same,MIC,"S. pneumoniae (PenS); S. pneumoniae (PenS), 20 isolates, read-out: MIC Range",0.015 to 0.03 µg/mL
